According to ChEMBL document CHEMBL4811240, “Discovery of N-substituted sulfamoylbenzamide derivatives as novel inhibitors of STAT3 signaling pathway based on Niclosamide” (Eur J Med Chem, 2021):
Calls of active or inactive are those of the source. No cut-off for these calls is given here.

Legend:
[1] = test system: MDA-MB-231; assay: Antiproliferative activity against human MDA-MB-231 cells assessed as inhibition of cell viability at 10 uM after 48 hrs by MTT assay relative to control; format: functional
[2] = biological target: Mitogen-activated protein kinase 3 (Homo sapiens) (UniProt P27361); assay: Inhibition of N-terminal GST-tagged full length ERK1 (1 to 379 residues) (unknown origin) expressed in Escherichia coli at 10 uM preincubated for 10 mins followed by peptide substrate addition relative to control
Sequence of Mitogen-activated protein kinase 3 (Homo sapiens) (P27361 whole entry, the tested form may be a part): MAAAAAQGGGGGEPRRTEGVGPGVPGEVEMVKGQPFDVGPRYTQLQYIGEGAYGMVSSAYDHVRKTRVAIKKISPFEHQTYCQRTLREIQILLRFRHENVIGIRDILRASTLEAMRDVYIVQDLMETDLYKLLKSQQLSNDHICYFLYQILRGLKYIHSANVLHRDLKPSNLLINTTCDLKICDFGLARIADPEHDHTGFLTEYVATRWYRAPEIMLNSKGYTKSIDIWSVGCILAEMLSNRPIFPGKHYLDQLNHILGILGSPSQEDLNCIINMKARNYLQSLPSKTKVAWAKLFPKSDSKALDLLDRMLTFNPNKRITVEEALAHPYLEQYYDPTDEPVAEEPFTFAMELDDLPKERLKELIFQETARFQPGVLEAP

[3] = biological target: Mitogen-activated protein kinase 9 (Homo sapiens) (UniProt P45984); assay: Inhibition of N-terminal GST-tagged JNK2 (1 to 364 residues) (unknown origin) expressed in Escherichia coli at 10 uM preincubated for 10 mins followed by peptide substrate addition relative to control
Sequence of Mitogen-activated protein kinase 9 (Homo sapiens) (P45984 whole entry, looked up, the tested form may be a part): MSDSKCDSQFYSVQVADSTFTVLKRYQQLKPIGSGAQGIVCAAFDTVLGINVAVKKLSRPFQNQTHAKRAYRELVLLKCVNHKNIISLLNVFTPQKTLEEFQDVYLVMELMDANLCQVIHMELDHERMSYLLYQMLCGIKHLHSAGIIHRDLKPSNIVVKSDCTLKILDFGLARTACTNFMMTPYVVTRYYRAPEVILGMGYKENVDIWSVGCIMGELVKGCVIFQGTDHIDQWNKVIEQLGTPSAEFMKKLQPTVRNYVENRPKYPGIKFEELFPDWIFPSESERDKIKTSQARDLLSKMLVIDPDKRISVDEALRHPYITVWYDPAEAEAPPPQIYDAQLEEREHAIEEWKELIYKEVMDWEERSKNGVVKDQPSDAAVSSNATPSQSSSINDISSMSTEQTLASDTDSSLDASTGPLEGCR

[4] = biological target: Epidermal growth factor receptor (Homo sapiens) (UniProt P00533); assay: Inhibition of wild-type EGFR (669 to 1210 residues) (unknown origin) expressed in Sf21 cells at 10 uM preincubated for 10 mins followed by peptide substrate addition relative to control
Sequence of Epidermal growth factor receptor (Homo sapiens) (P00533 whole entry, the tested form may be a part): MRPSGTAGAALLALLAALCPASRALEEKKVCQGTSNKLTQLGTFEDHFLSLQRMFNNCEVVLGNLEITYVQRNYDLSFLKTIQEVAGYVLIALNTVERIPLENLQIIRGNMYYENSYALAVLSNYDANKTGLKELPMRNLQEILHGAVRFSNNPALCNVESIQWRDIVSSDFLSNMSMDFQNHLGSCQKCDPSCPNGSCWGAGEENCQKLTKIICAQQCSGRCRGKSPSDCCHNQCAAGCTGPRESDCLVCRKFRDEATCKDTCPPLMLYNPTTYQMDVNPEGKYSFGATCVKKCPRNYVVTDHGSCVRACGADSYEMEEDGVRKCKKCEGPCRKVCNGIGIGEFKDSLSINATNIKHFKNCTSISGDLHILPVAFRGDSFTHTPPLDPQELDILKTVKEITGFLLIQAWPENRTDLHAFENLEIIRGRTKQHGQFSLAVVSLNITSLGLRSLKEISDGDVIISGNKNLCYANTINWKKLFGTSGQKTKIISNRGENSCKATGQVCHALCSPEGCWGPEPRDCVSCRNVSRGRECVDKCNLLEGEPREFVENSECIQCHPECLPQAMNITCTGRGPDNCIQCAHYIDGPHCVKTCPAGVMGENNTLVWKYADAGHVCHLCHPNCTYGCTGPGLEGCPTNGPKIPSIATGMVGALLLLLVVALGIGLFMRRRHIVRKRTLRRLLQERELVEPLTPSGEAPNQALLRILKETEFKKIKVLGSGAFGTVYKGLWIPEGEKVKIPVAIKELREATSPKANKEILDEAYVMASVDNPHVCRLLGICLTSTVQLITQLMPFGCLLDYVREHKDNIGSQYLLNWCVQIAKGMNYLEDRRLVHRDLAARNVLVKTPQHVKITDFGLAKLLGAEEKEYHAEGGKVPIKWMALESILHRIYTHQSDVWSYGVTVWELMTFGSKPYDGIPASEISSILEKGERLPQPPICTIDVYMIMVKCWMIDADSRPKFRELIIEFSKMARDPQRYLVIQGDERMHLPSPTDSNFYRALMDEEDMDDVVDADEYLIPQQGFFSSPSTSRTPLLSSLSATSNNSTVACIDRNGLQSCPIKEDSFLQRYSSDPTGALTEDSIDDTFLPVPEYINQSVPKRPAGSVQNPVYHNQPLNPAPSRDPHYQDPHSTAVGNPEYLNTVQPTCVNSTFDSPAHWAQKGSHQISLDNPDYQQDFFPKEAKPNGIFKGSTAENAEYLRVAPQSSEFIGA

[5] = biological target: Mitogen-activated protein kinase 1 (Homo sapiens) (UniProt P28482); assay: Inhibition of N-terminal GST-tagged full length ERK2 (1 to 360 residues) (unknown origin) expressed in Escherichia coli at 10 uM preincubated for 10 mins followed by peptide substrate addition relative to control
Sequence of Mitogen-activated protein kinase 1 (Homo sapiens) (P28482 whole entry, the tested form may be a part): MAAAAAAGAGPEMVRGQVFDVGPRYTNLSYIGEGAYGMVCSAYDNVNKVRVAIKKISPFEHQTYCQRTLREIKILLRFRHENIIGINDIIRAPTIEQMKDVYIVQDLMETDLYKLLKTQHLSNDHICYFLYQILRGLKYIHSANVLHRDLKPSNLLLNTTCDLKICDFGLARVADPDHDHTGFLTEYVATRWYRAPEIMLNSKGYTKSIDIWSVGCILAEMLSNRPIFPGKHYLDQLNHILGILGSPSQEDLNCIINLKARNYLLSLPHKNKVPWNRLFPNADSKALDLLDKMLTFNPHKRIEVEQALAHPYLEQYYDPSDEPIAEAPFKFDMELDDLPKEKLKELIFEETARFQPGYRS

[6] = test system: MDA-MB-231; assay: Inhibition of colony formation in human MDA-MB-231 cells at 1 uM after 24 hrs followed by compound washout and subsequent incubation for 14 days by crystal violet staining based assay; format: functional, cell-based
[7] = biological target: Signal transducer and activator of transcription 3 (Homo sapiens) (UniProt P40763); assay: Inhibition of STAT3 promoter activity in human MDA-MB-231 cells at 1 uM incubated for 24 hrs by dual luciferase reporter assay; format: cell-based
Sequence of Signal transducer and activator of transcription 3 (Homo sapiens) (P40763 whole entry): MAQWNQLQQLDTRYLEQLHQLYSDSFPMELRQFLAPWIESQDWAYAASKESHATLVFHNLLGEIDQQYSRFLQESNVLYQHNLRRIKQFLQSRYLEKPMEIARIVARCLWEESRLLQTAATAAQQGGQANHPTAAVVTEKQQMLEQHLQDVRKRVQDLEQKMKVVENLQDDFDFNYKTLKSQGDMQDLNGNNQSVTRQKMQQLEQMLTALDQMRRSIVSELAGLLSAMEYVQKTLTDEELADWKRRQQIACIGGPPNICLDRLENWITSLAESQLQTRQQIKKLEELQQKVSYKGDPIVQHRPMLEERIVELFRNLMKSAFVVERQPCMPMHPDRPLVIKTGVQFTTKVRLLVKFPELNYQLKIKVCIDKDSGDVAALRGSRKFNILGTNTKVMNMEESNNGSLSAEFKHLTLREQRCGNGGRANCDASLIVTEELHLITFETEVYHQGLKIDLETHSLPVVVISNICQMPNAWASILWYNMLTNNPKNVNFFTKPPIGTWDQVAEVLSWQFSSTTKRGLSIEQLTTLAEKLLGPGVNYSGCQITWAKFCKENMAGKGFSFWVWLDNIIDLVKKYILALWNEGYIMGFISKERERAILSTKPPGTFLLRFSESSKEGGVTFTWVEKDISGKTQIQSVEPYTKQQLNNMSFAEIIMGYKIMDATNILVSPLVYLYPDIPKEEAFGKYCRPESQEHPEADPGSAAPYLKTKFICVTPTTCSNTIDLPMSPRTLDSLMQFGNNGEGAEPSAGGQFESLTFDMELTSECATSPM

[8] = biological target: Receptor-type tyrosine-protein kinase FLT3 (Homo sapiens) (UniProt P36888); assay: Inhibition of recombinant human His-tagged FLT3 expressed in baculovirus expression system at 10 uM preincubated for 10 mins followed by peptide substrate addition relative to control
[9] = test system: Epidermal growth factor receptor (Homo sapiens), P00533 [L858R]; assay: Inhibition of EGFR L858R mutant (669 to 1210 residues) (unknown origin) expressed in Sf21 cells at 10 uM preincubated for 10 mins followed by peptide substrate addition relative to control
Sequence of Epidermal growth factor receptor (Homo sapiens), P00533 [L858R] (P00533 whole entry L858R, the tested form may be a part): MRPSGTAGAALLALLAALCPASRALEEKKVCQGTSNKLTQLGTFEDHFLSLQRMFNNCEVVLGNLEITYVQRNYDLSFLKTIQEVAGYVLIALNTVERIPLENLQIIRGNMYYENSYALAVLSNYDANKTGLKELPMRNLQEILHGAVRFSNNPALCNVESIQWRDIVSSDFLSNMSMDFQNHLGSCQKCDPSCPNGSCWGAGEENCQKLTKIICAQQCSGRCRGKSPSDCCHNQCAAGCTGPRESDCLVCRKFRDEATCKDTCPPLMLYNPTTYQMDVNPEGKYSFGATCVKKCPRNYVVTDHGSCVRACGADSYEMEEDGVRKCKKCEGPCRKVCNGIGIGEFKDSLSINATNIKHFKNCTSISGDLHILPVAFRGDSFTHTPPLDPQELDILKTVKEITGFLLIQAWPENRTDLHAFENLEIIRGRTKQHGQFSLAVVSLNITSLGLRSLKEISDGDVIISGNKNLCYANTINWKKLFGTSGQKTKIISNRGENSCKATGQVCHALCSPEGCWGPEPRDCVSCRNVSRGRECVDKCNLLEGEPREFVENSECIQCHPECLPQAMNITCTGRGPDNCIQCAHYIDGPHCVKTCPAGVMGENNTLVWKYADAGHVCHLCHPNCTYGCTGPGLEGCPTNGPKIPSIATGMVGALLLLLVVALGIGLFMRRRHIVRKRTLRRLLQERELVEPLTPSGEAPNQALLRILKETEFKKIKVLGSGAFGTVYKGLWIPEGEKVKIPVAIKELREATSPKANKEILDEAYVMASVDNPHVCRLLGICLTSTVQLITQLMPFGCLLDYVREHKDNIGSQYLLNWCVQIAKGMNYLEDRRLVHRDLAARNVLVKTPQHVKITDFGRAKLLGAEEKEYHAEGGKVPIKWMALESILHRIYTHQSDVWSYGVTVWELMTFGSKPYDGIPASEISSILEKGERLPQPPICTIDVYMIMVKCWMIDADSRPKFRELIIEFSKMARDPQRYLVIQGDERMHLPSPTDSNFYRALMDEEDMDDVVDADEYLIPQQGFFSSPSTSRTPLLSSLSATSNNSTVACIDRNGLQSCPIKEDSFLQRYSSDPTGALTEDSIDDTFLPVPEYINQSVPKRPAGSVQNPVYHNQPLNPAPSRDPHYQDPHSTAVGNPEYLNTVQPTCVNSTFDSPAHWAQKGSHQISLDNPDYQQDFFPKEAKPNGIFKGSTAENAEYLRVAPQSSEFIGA

[10] = Lipophilicity, log P of the compound; format: physicochemical; conditions: octanol/water
[11] = test system: MDA-MB-231; assay: Induction of apoptosis in human MDA-MB-231 cells assessed as increase in cleaved caspase 3 expression at 1 to 10 uM incubated for 24 hrs by Western blot analysis; format: functional, cell-based; conditions: dose 1-10 µM
[12] = biological target: Proto-oncogene tyrosine-protein kinase receptor Ret (Homo sapiens) (UniProt P07949); assay: Inhibition of RET (658 to 1114 residues) (unknown origin) expressed in Sf21 at 10 uM preincubated for 10 mins followed by peptide substrate addition relative to control
[13] = biological target: ALK tyrosine kinase receptor (Homo sapiens) (UniProt Q9UM73); assay: Inhibition of ALK (1058 to 1620 residues) (unknown origin) expressed in Sf21 cells at 10 uM preincubated for 10 mins followed by peptide substrate addition relative to control
[14] = test system: MDA-MB-231; assay: Induction of apoptosis in human MDA-MB-231 cells assessed as decrease in Bcl-xl expression at 1 to 10 uM incubated for 24 hrs by Western blot analysis; format: functional, cell-based; conditions: dose 1-10 µM
[15] = test system: MDA-MB-231; assay: Induction of apoptosis in human MDA-MB-231 cells assessed as apoptotic cells at 1 uM measured after 24 hrs by annexinV-FITC/propidium iodide staining based flow cytometry analysis (reference value: 2.49%); format: functional
[16] = biological target: Wee1-like protein kinase (Homo sapiens) (UniProt P30291); assay: Inhibition of Wee1 (215 to 646 residues) (unknown origin) expressed in Sf21 at 10 uM preincubated for 10 mins followed by peptide substrate addition relative to control
[17] = test system: MDA-MB-231; assay: Antitumor activity against human MDA-MB-231 cells xenografted in BALB/c nude mouse assessed as the inhibition of tumor growth at 30 mg/kg, ig administered every two days; format: functional, organism-based
[18] = biological target: Platelet-derived growth factor receptor beta (Homo sapiens) (UniProt P09619); assay: Inhibition of PDGFRbeta (557 to 1106 residues) (unknown origin) expressed in Sf21 at 10 uM preincubated for 10 mins followed by peptide substrate addition relative to control
[19] = test system: MDA-MB-231; assay: Antiproliferative activity against human MDA-MB-231 cells assessed as inhibition of cell viability after 48 hrs by MTT assay; format: functional, cell-based; conditions: MDA-MB-231, 48 h
[20] = biological target: Signal transducer and activator of transcription 3 (Homo sapiens) (UniProt P40763); assay: Inhibition of STAT3 promoter activity in human MDA-MB-231 cells at 0.5 uM incubated for 24 hrs by dual luciferase reporter assay; format: cell-based
[21] = biological target: Signal transducer and activator of transcription 3 (Homo sapiens) (UniProt P40763); assay: Inhibition of STAT3 promoter activity in human MDA-MB-231 cells at 0.1 uM incubated for 24 hrs by dual luciferase reporter assay; format: cell-based
[22] = biological target: RAC-beta serine/threonine-protein kinase (Homo sapiens) (UniProt P31751); assay: Inhibition of human N-terminal His-tagged full length AKT2 expressed in Sf9 cells at 10 uM preincubated for 10 mins followed by peptide substrate addition relative to control
Sequence of RAC-beta serine/threonine-protein kinase (Homo sapiens) (P31751 whole entry, the tested form may be a part): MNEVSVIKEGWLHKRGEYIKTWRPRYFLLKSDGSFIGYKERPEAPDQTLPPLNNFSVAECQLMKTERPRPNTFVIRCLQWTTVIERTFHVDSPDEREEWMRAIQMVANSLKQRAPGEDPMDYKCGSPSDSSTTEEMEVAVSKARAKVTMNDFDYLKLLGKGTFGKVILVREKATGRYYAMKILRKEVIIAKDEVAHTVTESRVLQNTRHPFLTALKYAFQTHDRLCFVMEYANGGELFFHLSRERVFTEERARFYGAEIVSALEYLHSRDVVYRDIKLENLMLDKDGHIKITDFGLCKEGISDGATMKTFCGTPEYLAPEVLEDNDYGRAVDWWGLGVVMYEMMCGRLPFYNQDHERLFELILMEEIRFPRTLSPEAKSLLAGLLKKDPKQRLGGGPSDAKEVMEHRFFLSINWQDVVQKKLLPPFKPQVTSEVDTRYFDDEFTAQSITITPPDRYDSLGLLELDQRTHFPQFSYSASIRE

[23] = biological target: Tyrosine-protein kinase JAK1 (Homo sapiens) (UniProt P23458); assay: Inhibition of JAK1 (850 to 1154 residues) (unknown origin) expressed in Sf21 cells at 10 uM preincubated for 10 mins followed by peptide substrate addition relative to control
[24] = test system: MDA-MB-231; assay: Inhibition of human MDA-MB-231 cells migration after 24 hrs by crystal violet staining based transwell migration assay; format: functional, cell-based; conditions: dose 0.1-1 µM
[25] = test system: Epidermal growth factor receptor (Homo sapiens), P00533 [T790M]; assay: Inhibition of EGFR T790M mutant (669 to 1210 residues) (unknown origin) expressed in Sf21 cells at 10 uM preincubated for 10 mins followed by peptide substrate addition relative to control
[26] = test system: MDA-MB-231; assay: Induction of apoptosis in human MDA-MB-231 cells assessed as apoptotic cells at 10 uM measured after 24 hrs by annexinV-FITC/propidium iodide staining based flow cytometry analysis (reference value: 2.49%); format: functional
[27] = biological target: Fibroblast growth factor receptor 3 (Homo sapiens) (UniProt P22607); assay: Inhibition of FGFR3 (436 to 806 residues) (unknown origin) expressed in Sf21 cells at 10 uM preincubated for 10 mins followed by peptide substrate addition relative to control
[28] = biological target: Proto-oncogene tyrosine-protein kinase ROS (Homo sapiens) (UniProt P08922); assay: Inhibition of N-terminal GST-tagged ROS1 (1883 to 2347 residues) (unknown origin) expressed in Sf21 cells at 10 uM preincubated for 10 mins followed by peptide substrate addition relative to control
[29] = biological target: Tyrosine-protein kinase JAK3 (Homo sapiens) (UniProt P52333); assay: Inhibition of N-terminal His-tagged JAK3 (795 to 1124 residues) (unknown origin) expressed in Sf21 cells at 10 uM preincubated for 10 mins followed by peptide substrate addition relative to control
[30] = biological target: Signal transducer and activator of transcription 3 (Homo sapiens) (UniProt P40763); assay: Inhibition of IL-6 induced STAT3 phosphorylation in human MDA-MB-231 cells at 5 uM incubated for 2 hrs by Western blotting analysis; format: cell-based

## CC(C)(C)OC(=O)c1ccc(NC(=O)c2ccc(Cl)c(S(N)(=O)=O)c2)cc1
[1]
  inhibition at 10 µM: 93%
[2]
  inhibition: 1.72%
[3]
  inhibition: 4.16%
[4]
  inhibition: 4.41%
[5]
  inhibition: 0.78%
[6]
  inhibition: Active
[7]
  inhibition: 87.9%
[8]
  inhibition: 10.2%
[9]
  inhibition: 4.82%
[10]
  logP: 1.83
[11]
  Activity: Active
[12]
  inhibition: -7.23%
[13]
  inhibition: 5.19%
[14]
  Activity: Active
[15]
  Activity: 6.75%
[16]
  inhibition: 4.76%
[17]
  Activity: Active
[18]
  inhibition: -1.19%
[19]
  IC50: 610 nM
[20]
  inhibition: 80.6%
[21]
  inhibition: 24.7%
[22]
  inhibition: 3.38%
[23]
  inhibition: 2.99%
[24]
  inhibition: Dose-Dependent Effect
[25]
  inhibition: 2.23%
[26]
  Activity: 25.63%
[27]
  inhibition: 1.25%
[28]
  inhibition: -3.38%
[29]
  inhibition: 4.24%
[30]
  inhibition: 100%
